Laboratory results taken from patent US7402600B2, “Nitroderivatives of cardiovascular agents” (NicOx S.A., priority 1999, dated 2008).
“Also recorded” adds a separate entry of the source. Read-outs that look alike come from different tables or passages of the source.

Assays:
[1] = tested on: Human endothelial cells of the umbilical vein; test: Test 2 (CIP): apoptosis (DNA fragmentation) induced by cumene hydroperoxide in endothelial cells; assay type: cell-based; settings: for inhibition of apoptosis induced by CIP (in words, t Student p<0.01): CIP 5 mM; for activity at 100 µM: Homo sapiens, Endothelial cell, 1 h, read-out: Apoptosis % with respect to the controls treated only with CIP
Description: Test 2 (CIP): Protection parameter of endothelial cell against the oxidative stress induced by cumene hydroperoxide (CIP).
Human endothelial cells of the umbilical vein are prepared according to an usual standard procedure. Fresh umbilical veins are filled with a 0.1% by weight collagenase solution and incubated at 37° C. for 5 minutes.
The cells are collected from the perfusate by centrifugation and harvested in culture flasks T-75, pretreated with human fibronectin. The cells are then harvested in the same medium, further added with 10 ng/ml of bovine hypothalamic growth factor. When the cells of the primary cell culture (i.e. that directly obtained from ex-vivo) form a single layer of confluent cells (about 8,000,000 cells/flask), the culture is stopped and the layers washed and trypsinized. The cellular suspensions are transferred into the wells of a cell culture plate having 24 wells, half of which is then additioned with the same culture medium containing the drug at a 10^−4M concentration, and harvested in a thermostat at 37° C. at a constant moisture. Only the cells coming from said first sub-cultures are used for the experiments with cumene hydroperoxide (CIP).
Before starting the test, the cellular culture medium is removed and the cellular layers are carefully washed with a physiologic solution at a temperature of 37° C. The wells of the culture plate are then incubated for one hour with CIP at a 5 mM concentration in the culture medium. […] 5 replicates for each sample are carried out.
Human endothelial cells of the umbilical vein are prepared according to a standard method. Fresh umbilical veins are filled with a collagenase solution 0.1% by weight and incubated at 37° C. for 5 minutes.
The cells are collected from the perfusate by centrifugation at 800 rpm and harvested in culture flasks T-75, pretreated with human fibronectin. Cells are then harvested in the same medium, added with bovine hypothalamic growth factor (100 ng/ml). When the cells of the primary cell culture (the cells directly removed from ex-vivo umbilical vein) form a single layer of confluent cells (about 8,000,000 cells/flask), harvesting is stopped and the layers are washed and trypsinized. The cellular suspensions are transferred into wells of a culture plate having 24 wells, half of said wells being added with the same culture medium containing the drug at a 10^−4M concentration, and harvested in a thermostat at 37° C. at a constant moisture (90%), CO2=5%. When the drug is not soluble in the culture medium, it is formerly dissolved in a small amount of dimethylsulphoxide. The maximum amount of dimethylsulphoxide which can be added to the culture medium is 0.5%. Only the cells coming from these first subcultures are used for the tests with cumene hydroperoxide (CIP). The cells are identified as endothelial cells by morphological examination and by the specific immunological reaction towards factor VIII; these cultures did never show contaminations from myocytes or fibroblasts.
Before starting the test, the cellular culture medium is removed and the cellular layers are carefully washed with a standard physiologic solution buffered with phosphate 0.1 M pH 7.0, at the temperature of 37° C. The content of each well is then incubated for one hour with a CIP suspension in the culture medium at a 5 mM concentration. Evaluation of the cellular damage (apoptosis) is carried out by determining the percent variation of the DNA fragmentation in the cultures containing the drug+CIP with respect to the controls treated with CIP only. […] The fluorescence of each sample was determined on 5 replicates. Statistic evaluation has been made with t Student test (p<0.01).

gastric mucosa = test: Example F6: gastric tolerability of invention compounds versus precursor drugs, with or without L-NAME; assay type: in vivo, rats
Excerpt: Gastric Tolerability Test of the Compounds According to the Invention in the Confront of the Corresponding Precursor Drugs in Conditions of Endothelial Dysfunctions Induced by L-NAME (N^w-nitro-L-arginine-methyl ester).

[2] = rats, dose and route as in the column beside (higher doses than in L-NAME animals)
[3] = drug 10^-4 M, CIP 5 mM for one hour, DNA fragmentation

## CC(=O)Nc1ccc(O)cc1 [Paracetamol]
[1]; drug 10^-4 M
  inhibition of apoptosis induced by CIP (in words, t Student p<0.01): do not significantly inhibit apoptosis; also recorded: not significantly different with respect to that of the controls

## O=C(CCC(=O)OCCCCO[N+](=O)[O-])Nc1c2c(nc3ccccc13)CCCC2 [Example 5]
Gastric mucosa; rats, L-NAME
  % gastropathy, animals treated with L-NAME: 0%
Gastric mucosa; [2]
  % gastropathy, animals not treated with L-NAME: 20%

## O=C(O)Cc1ccccc1Nc1c(Cl)cccc1Cl [Diclofenac]
Gastric mucosa; rat, in vivo, 4 weeks
  % gastropathy, animals not treated with L-NAME: 70%
  % gastropathy, animals treated with L-NAME: 100%

## O=C(Cc1ccccc1Nc1c(Cl)cccc1Cl)NC(Cc1c[nH]cn1)C(=O)OCCCCO[N+](=O)[O-] (centres unmarked) [Example 4, [2-[(2,6-dichlorophenyl)amino]-benzeneacetyloxy]-(L)-histidine 4-(nitroxy)butyl ester]
Gastric mucosa; rats, L-NAME
  % gastropathy, animals treated with L-NAME: 0%
Gastric mucosa; [2]
  % gastropathy, animals not treated with L-NAME: 0%

## CCOC(=O)[C@H](CCc1ccccc1)N[C@@H](C)C(=O)N1CCC[C@H]1C(=O)O [Enalapril]
[1]; [3]
  activity at 100 µM: 80%
[1]; drug 10^-4 M
  inhibition of apoptosis induced by CIP (in words, t Student p<0.01): do not significantly inhibit apoptosis

## Nc1c(Br)cc(Br)cc1CNC1CCC(OC(=O)CCC(=O)OCCCCO[N+](=O)[O-])CC1 (centres unmarked) [Example 7, [4-oxo-(4-nitroxybutyloxy)butanoyl4-(2-amino-3,5-dibromophenyl)-methylamino] cyclohexanol ester]
Gastric mucosa; rats, L-NAME
  % gastropathy, animals treated with L-NAME: 0%
Gastric mucosa; [2]
  % gastropathy, animals not treated with L-NAME: 10%

## CC(C)(C)NCC(O)c1ccc(O)c(CO)c1 (centres unmarked) [Salbutamol]
[1]; drug 10^-4 M
  inhibition of apoptosis induced by CIP (in words, t Student p<0.01): do not significantly inhibit apoptosis

## CC1(C)S[C@@H]2[C@H](NC(=O)[C@H](N)c3ccccc3)C(=O)N2[C@H]1C(=O)O [Ampicilline]
[1]; [3]
  activity at 100 µM: 94%
[1]; drug 10^-4 M
  inhibition of apoptosis induced by CIP (in words, t Student p<0.01): do not significantly inhibit apoptosis

## Nc1nc2c(ncn2COCCO)c(=O)[nH]1 [Aciclovir]
[1]; [3]
  activity at 100 µM: 95%
[1]; drug 10^-4 M
  inhibition of apoptosis induced by CIP (in words, t Student p<0.01): do not significantly inhibit apoptosis

## Cn1c(=O)c2c(ncn2CC(O)CO)n(C)c1=O (centres unmarked) [Diphylline]
[1]; drug 10^-4 M
  inhibition of apoptosis induced by CIP (in words, t Student p<0.01): do not significantly inhibit apoptosis
[1]; [3]
  Apoptosis % with respect to the controls treated only with CIP: 95%

## O=C(O)COCCN1CCN(C(c2ccccc2)c2ccc(Cl)cc2)CC1 (centres unmarked) [Cetirizine]
[1]; [3]
  activity at 100 µM: 115%
[1]; drug 10^-4 M
  inhibition of apoptosis induced by CIP (in words, t Student p<0.01): do not significantly inhibit apoptosis

## NC(=O)c1cccnc1 [Nicotinamide]
[1]; drug 10^-4 M
  inhibition of apoptosis induced by CIP (in words, t Student p<0.01): do not significantly inhibit apoptosis

## O=C(CCC(=O)OCCCCO[N+](=O)[O-])NCCCC(O)(P(=O)(O)O)P(=O)(O)O [Example 6, [4-amino-[4-oxo-(4-nitroxybutyloxy)butanoyl]-1-hyroxybutyliden] biphosphonic acid]
Gastric mucosa; rats, L-NAME
  % gastropathy, animals treated with L-NAME: 10%
Gastric mucosa; [2]
  % gastropathy, animals not treated with L-NAME: 20%

## CCC(C)(C)C(=O)O[C@H]1C[C@@H](C)C=C2C=C[C@H](C)[C@H](CC[C@@H]3C[C@@H](O)CC(=O)O3)[C@H]21 [Simvastatine]
[1]
  activity at 100 µM: 72%

## COC(=O)[C@H](c1ccccc1Cl)N1CCc2sccc2C1 [Clopidogrel]
[1]; [3]
  activity at 100 µM: 110%
[1]; drug 10^-4 M
  inhibition of apoptosis induced by CIP (in words, t Student p<0.01): do not significantly inhibit apoptosis
